Target: orphan nuclear receptor 4A1 (NR4A1) (Homo sapiens, UniProt P22736)
Assay: ITC with the NR4A1 LBD; also Trp fluorescence quenching (KD […]) and GAL4-NR4A1 reporter assay
Format: binding

orphan nuclear receptor 4A1 (NR4A1), sequence (P22736 360-598 limits assumed): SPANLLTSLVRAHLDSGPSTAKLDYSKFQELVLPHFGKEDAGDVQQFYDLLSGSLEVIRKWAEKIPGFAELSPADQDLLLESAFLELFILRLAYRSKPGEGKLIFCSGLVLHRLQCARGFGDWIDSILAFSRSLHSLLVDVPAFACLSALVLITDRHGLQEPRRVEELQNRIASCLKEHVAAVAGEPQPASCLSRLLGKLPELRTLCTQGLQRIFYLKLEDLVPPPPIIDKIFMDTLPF

`COc1cc(/C=C/C(=O)N2CCC=CC2=O)cc(OC)c1OC` [piperlongumine] showed a Kd of 4.97 µM.

Reference: PMC10551445, “Piperlongumine is a ligand for the orphan nuclear receptor 4A1 (NR4A1)” (Frontiers in Pharmacology, 2023)
